Here are results for 17 compounds from patent publication US20240253023A1, “PERFLUORINATED AMIDE SALTS AND THEIR USES AS IONIC CONDUCTING MATERIALS” (priority 1996, published 2024).

Series [1] can be described thus: solubility in organic solvents and polymers. Conditions: for solubility in organic solvents: organic solvents (tetrahydrofurane, acetonitrile, dimethylformamide, ethyl acetate, glymes ...), mostly also in aprotic solvating or polar polymers.
The nature of series [2]: ionic conductivity of salts and polyelectrolytes in polymer, liquid, gel or molten media. The series is classed as physicochemical.
A short description of series [3]: oxidation potential towards a lithium anode. Format: physicochemical.
The conditions of series [4]: acid form; cited from earlier work.
A short description of series [5]: cationic transport number of electrolytes. The series is classed as physicochemical. Conditions: in poly (ethylene oxide).
Series [6] can be described thus: reversible redox potential in poly (ethylene oxide) on a platinum electrode, towards a lithium electrode. Format: physicochemical. Conditions: platinum electrode 125 μm. On the procedure:
These salts have a reversible redox couple. In poly (ethylene oxide) a reversible potential≈3.4 V towards a lithium electrode was determined on a platinum electrode having a diameter of 125 μm.
This salt has two reversible redox couples. In poly (ethylene oxide), on a platinum electrode of a diameter of 125 μm, it was shown that there is a first redox couple having a potential≈3.2 V and a second redox couple having a potential≈3.8 V, these potentials being measured towards a lithium electrode.

[7] abbreviates: in poly (ethylene oxide), O/Li 12/1, 60° C.

Where a name gives a salt, the structure may show the parent alone.

`CCCCC(CC)CN(CC(CC)CCCC)S(=O)(=O)[N-]S(=O)(=O)C(F)(F)F.CCN1C(=CC=CC=CC=Cc2sc3ccccc3[n+]2CC)Sc2ccccc21` [3,3′-diethylthiatricarbocyanine of di-2-ethylhexylaminosulfonyl(trifluoro-methanesulfonyl)imide]: the “solubility in low polar solvents” value in series [1] (dichloromethane or methylene chloride, polymer matrices with low polarity such as methyl polymethacrylate) was “very soluble in low polar solvents”.
For `O=S(=O)(CC(F)(F)F)[N-]S(=O)(=O)C(F)(F)F.[Li+]` [Example 9, lithium salt of trifluoromethanesulfonyl(2,2,2-trifluoroethane-sulfonyl) imide], the conductivity in series [2] (setting [7]) is 2.3×10^−4 S·cm^−1.
Regarding `CN(C)S(=O)(=O)[N-]S(=O)(=O)C(F)(F)F.CN(C)S(=O)(=O)[N-]S(=O)(=O)C(F)(F)F.CN(C)S(=O)(=O)[N-]S(=O)(=O)C(F)(F)F.[La+3]` [Example 30, lanthanum salt of trifluoromethanesulfonyl(dimethylaminosulfonyl)-imide], the “solubility in organic solvents” value in series [1] is reported as “highly soluble in the usual organic solvents”.
With `O=S(=O)(Nc1nnc(C(F)(F)F)s1)C(F)(F)F` [Example 34, trifluoromethanesulfonyl(5-trifluoromethyl-1,3,4 thiadiazole)amide], the oxidation potential entry in series [3] (1 M in ethylene carbonate and dimethylcarbonate (2:1)) is listed as “higher than 4 V”. Further, the “solubility in organic solvents” value in series [1] is given as “soluble in most usual organic solvents”.
`O=S(=O)([N-]S(=O)(=O)C(F)(F)F)c1nnc(C(F)(F)F)s1.[Li+]` [Example 35, lithium salt of trifluoromethanesulfonyl(5-trifluoromethyl-1,3,4-thiadiazole-5-sulfonyl)imide]: the oxidation potential result in series [3] (0.5 M in acetonitrile) is reported as “higher than 4.5 V”. Also, the “solubility in organic solvents” value in series [1] was “soluble in most usual organic solvents”.
With `O=S(=O)(NS(=O)(=O)C(F)(F)F)OC(C(F)(F)F)C(F)(F)F` [Example 37 molten salt, trifluoromethanesulfonyl(1,1,1,3,3,3-hexafluoro-2-propanoxysulfonyl)imide 1-ethyl-3-methyl-1H-imidazolium], the conductivity in series [2] (neat molten salt, temperature not stated) is listed as 3.91×10^−3 S·cm^−1.
As to `CN(C)c1cccc2c(S(=O)(=O)[N-]S(=O)(=O)C(F)(F)F)cccc12.[K+]` [Example 53, potassium trifluoromethane-sulfonyl(5-dimethylamino-1-naphthalenesulfonyl)imide], the “solubility in organic solvents” value in series [1] was “soluble in most polar organic solvents”.
Still for that read-out and setting: to `O=S(=O)(CCc1c2ccccc2cc2ccccc12)[N-]S(=O)(=O)C(F)(F)F.[K+]` [Example 56, potassium salt of trifluoromethanesulfonyl(anthracenyl-9-ethanesulfonyl)imide] belongs “soluble in most usual organic solvents”.
The pKa is the negative logarithm of the acid dissociation constant. Turning to `O=S(=O)(NS(=O)(=O)C(F)(F)F)C(F)(F)F` [H[CF3SO2—N—SO2CF3]], the pKa in series [4] is 1.95.
With `CCN(CC)S(=O)(=O)[N-]S(=O)(=O)C(F)(F)F.CCN(CC)S(=O)(=O)[N-]S(=O)(=O)C(F)(F)F.CCN(CC)S(=O)(=O)[N-]S(=O)(=O)C(F)(F)F.[Yb+3]` [Yb(DETFSI)3, ytterbium salt of diethylaminosulfonyl(trifluoromethanesulfonyl)imide], the solubility in dichloromethane result in series [1] (dichloromethane) is “good solubility in dichloromethane”.
On to `CCCN(CCC)S(=O)(=O)[N-]S(=O)(=O)C(F)(F)F.[Li+]` [lithium salt of trifluoromethanesulfonyl(dipropylaminosulfonyl)-imide], for which the conductivity in series [2] (in poly (ethylene oxide), O/Li=12/1, temperature not stated) is reported as 1.4×10^−4 S·cm^−1. For the same compound, the cationic transport number in series [5] (O/Li=12/1) stood at 0.42.
With `CCCCCCCCCCCCS(=O)(=O)[N-]S(=O)(=O)C(F)(F)F.[Li+]` [lithium salt of trifluoromethanesulfonyl(dodecylsulfonyl)imide], the cationic transport number result in series [5] (O/Li=16/1) was “about 0.55”.
As to `CN(C)S(=O)(=O)[N-]S(=O)(=O)C(F)(F)F.[Li+]` [lithium salt of trifluoromethanesulfonyl-(dimethylaminosulfonyl)imide], the conductivity in series [2] (setting [7]) was 1.2×10^−4 S·cm^−1.
On to `CN(C)S(=O)(=O)[N-]S(=O)(=O)C(F)(F)F.[K+]` [potassium salt of trifluoromethanesulfonyl-(dimethylaminosulfonyl)irnide], for which the conductivity in series [2] (in poly (ethylene oxide), O/K=12/1, 60° C.) is 5.10^−4 S·cm^−1.
Turning to “N-trifluoromethanesulfonyl-2-aminoacridine tetraethylammonium [Example 54]”, in series [1], the “solubility in organic solvents” value was “soluble in most usual organic solvents”.
Consider “di-lithium salt of 9-10-(propylsulfonamide-N-trifluoromethanesulfonyl)phenazine [Example 61]”, for which, in series [6], the “potential of first redox couple” value is “≈ 3.2 V” and the “potential of second redox couple” value is “≈ 3.8 V”.
With “potassium salt of N,N′,N″,N′″-perfluorobutanesulfonyl-Nickel(II) phtalocyaninetetrasulfonamide [Example 57]”, in series [1], the “solubility in organic solvents” value is “soluble in most usual organic solvents”.
